The results in this text go back to patent US20240366711A1, “PREPARATION CONTAINING CYCLIC PEPTIDE COMPOUND AND METHOD FOR PRODUCING SAME” (CHUGAI SEIYAKU KABUSHIKI KAISHA, priority 2021, published 2024).

Bridge positions count the residues as written; N and C are the ends. Square brackets hold non-standard residues; d marks the D form. Peptide text beside a SMILES is read from it. hPhe(3,5-F2-4-CF3) = N[C@@H](CCc1cc(F)c(C(F)(F)F)c(F)c1)C(=O)O; NEtPhe(4-Me) = CCN[C@@H](Cc1ccc(C)cc1)C(=O)O; NMeGly(cPent) = CN[C@H](C(=O)O)C1CCCC1; NMeD = CN[C@@H](CC(=O)O)C(=O)O; NMeL = CN[C@@H](CC(C)C)C(=O)O; NMeA = CN[C@@H](C)C(=O)O; Ac5c = NC1(C(=O)O)CCCC1; Aze = O=C(O)[C@@H]1CCN1; Sar = CNCC(=O)O

Test [1] deals with Human pancreatic cancer strain AsPC-1. Kind of test: AsPC-1 cell growth inhibitory activity (AsPC-1CGI). The note with it: AsPC-1 cells, 96 hours, CellTiter-Glo; read-out: IC50 value (50% growth inhibition concentration). Type of test: cell-based. The method, then: AsPC-1 cell growth inhibitory activity can be performed by methods known to those skilled in the art using devices, reagents, cell lines, and the like available from commercial suppliers. Specifically, Compound 1 was serially diluted with dimethyl sulfoxide, then 200 nL of the dilution was dispensed into the U-bottom 96 well plate with Labcyte Echo. Human pancreatic cancer strain AsPC-1 was added to RPMI-1640 medium supplemented with 15% bovine fetal serum to prepare a cell suspension of 1000 cells/100 μL. The cell suspension was dispensed by 100 μL per well to Compound 1-added plates, and cultured in a 37° C., 5% carbon dioxide gas incubator. After 96 hours, 80 μL of CellTiter-Glo (Promega Corporation) was added to each well, and […] was measured. Cell growth inhibition (CGI) of the test compound was calculated as 50% growth inhibition concentration (IC50 value) from the growth inhibition rate of the case with addition of Compound I to the control without addition of Compound 1.

The target of test [2] is Kras-SOS1 protein-protein interaction (Homo sapiens, UniProt P01116, G12D). Kind of test: Kras-SOS1 protein-protein interaction inhibition (KrasG12D-SOS PPI) using AlphaScreen. Type of test: binding. The note with it: biotin-tagged human Kras (GDP-loaded) and His-tagged human SOS1, AlphaScreen. (In general: Alpha assays give light when donor and acceptor beads are brought close together.)
Sequence of Kras-SOS1 protein-protein interaction (P01116 whole entry G12D): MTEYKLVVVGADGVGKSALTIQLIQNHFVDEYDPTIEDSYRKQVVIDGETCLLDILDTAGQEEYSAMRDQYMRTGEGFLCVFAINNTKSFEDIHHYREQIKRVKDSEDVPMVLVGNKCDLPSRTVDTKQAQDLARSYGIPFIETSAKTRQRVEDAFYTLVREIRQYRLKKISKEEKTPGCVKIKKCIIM
Procedure: Kras-SOS1 protein-protein interaction inhibition (PPI) can be performed by a method known to those skilled in the art using a device, a reagent, or the like available from commercial suppliers. Specifically, biotin-tagged human Kras and His-tagged human SOS1 enzymes expressed in E. coli and loaded with GDP after purification were used to measure PPI by energy transfer from nickel-bound donor beads to streptavidin-bound acceptor beads. This measurement is performed by irradiating the donor beads with light of 680 nm to induce energy transfer to the acceptor beads via singlet oxygen, and detecting light of 520 to 620 nm from the acceptor beads. Based on the inhibition of the control group without Compound 1, 50% inhibitory concentration (IC50 value) was calculated.

In the case of `CC[C@H](C)[C@@H]1NC(=O)[C@H](CC(C)C)N(C)C(=O)C[C@@H](C(=O)N(C)C)N(C)C(=O)[C@H](C2CCCC2)N(C)C(=O)C2(CCCC2)NC(=O)[C@@H]2CCCN2C(=O)[C@H](CCc2cc(F)c(C(F)(F)F)c(F)c2)NC(=O)CN(C)C(=O)[C@H](Cc2ccc(C)cc2)N(CC)C(=O)[C@@H]2CCN2C(=O)[C@H](C)N(C)C1=O` [Compound 1, (5S,8S,11S,15S,18S,23aS,29S,35S,37aS)-8-((S)-sec-butyl)-18-cyclopentyl-29-(3,5-difluoro-4-(trifluoromethyl)phenethyl)-36-ethyl-11-isobutyl-N,N,5,6,12,16,19,33-octamethyl-35-(4-methylbenzyl)-4,7,10,13,17,20,23,28,31,34,37-undecaoxotetratriacontahydro-2H,4H-spiro[azeto[2,1-u]pyrrolo[2,1-i][1,4,7,10,13,16,19,22,25,28,31]undecaazacyclotetratriacontin-21,1′-cyclopentane]-15-carboxamide] ([NMeL]I[NMeA][Aze][NEtPhe(4-Me)][Sar][hPhe(3,5-F2-4-CF3)]P[Ac5c][NMeGly(cPent)][NMeD]-NMe2; lactam N-11), the IC50 in test [1] was not above 20 nM; in test [2], 1 nM.
